Data as given in patent US20230123334A1, “AMINO LIPID COMPOUND, PREPARATION METHOD THEREFOR, AND APPLICATION THEREOF” (SHENZHEN SHENXIN BIOTECHNOLOGY CO., LTD., priority 2020, published 2023).

Test system: HEK293 cells
Assay: Preliminary screening as mRNA vectors, EGFP mRNA transfection of HEK293 cells
Assay type: cell-based
Details: EGFP mRNA 50 ng per well, 96-well plates; percentage of GFP fluorescent cells relative to total number of cells (Hoechst)
How it was run: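 HEK293 cells in DMEM plus 10% FBS transfected in 96-well format with 50 ng EGFP mRNA per well; Lipofectamine2000 served as positive control. Read-out is the percentage of GFP-fluorescent cells among total cells, counted by Hoechst nuclear stain.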

Compared with CCCCCCCCCCCCN(CCCCCCCCCCCC)c1nc(NCCN(C)C)nc(SCCCCCC)n1 [D1S6^2N12], CCCCCCCCCCCCN(CCCCCCCCCCCC)c1nc(NCCCN2CCOCC2)nc(SCCCCCC)n1 [D8S6^2N12] is lower in “Absolute mRNA transfection efficiency in HEK293 cells” value (“Absolute mRNA transfection efficiency” for short): 0.7% for the first, 0.0% for the second.

Going from CCCCCCCCCCCCCCCCCCNc1nc(NCCCN(C)C)nc(SCCCCCCCCCCCCCC)n1 [Compound D6S14N18] to CCCCCCCCCCCCCCCCSc1nc(NCCCCCCCCCCCCCCC)nc(NCCCN(C)C)n1 [Compound D6S16N15], the “Absolute mRNA transfection efficiency” value falls from 0.7% to 0.1%.

First: CCCCCCCCCCCCCCCCSc1nc(NCCN(CC)CC)nc(N(CCCCCCCCCCCC)CCCCCCCCCCCC)n1 [D7S16^2N12]
Second: CCCCCCCCCCCCCCCCSc1nc(NCCCN2CCN(C)CC2)nc(N(CCCCCCCCCCCC)CCCCCCCCCCCC)n1 [D9S16^2N12]
The “Absolute mRNA transfection efficiency” value of the first is lower: 0.8% for the first, 2.7% for the second.

Compared with CCCCCCCCCNc1nc(NCCN2CCN(C)CC2)nc(SCCCCCCC)n1 [Compound D5S7N9], CCCCCCCCCSc1nc(NCCCCCCCC)nc(NCCN2CCN(C)CC2)n1 [Compound D5S9N8] is higher in “Absolute mRNA transfection efficiency” value: 3.1% for the first, 6.0% for the second.

First: CCCCCCCNc1nc(NCCCN(C)C)nc(SCCCCCC)n1 [Compound D6S6N7]
Second: CCCCCCCCSc1nc(NCCCCCC)nc(NCCN(C)C)n1 [Compound D1S8N6]
The “Absolute mRNA transfection efficiency” value of the first is lower: 0.2% for the first, 2.4% for the second.

Going from CCCCCCCCCCCCCCCCCCSc1nc(NCCN2CCCCC2)nc(SCCCCCCC)n1 [Compound D4S7S18] to CCCCCCCCCCCCCCCCCCSc1nc(NCCN2CCCCC2)nc(SCCCCCC)n1 [Compound D4S6S18], the “Absolute mRNA transfection efficiency” value rises from 4.5% to 8.8%.

First: CCCCCCCCCCCCCCSc1nc(NCCCCCCCCCCC)nc(NCCCN(C)C)n1 [Compound D6S14N11]
Second: CCCCCCCCCCCCCCCCNc1nc(NCCCN(C)C)nc(SCCCCCCCCCCC)n1 [Compound D6S11N16]
The “Absolute mRNA transfection efficiency” value of the first is higher: 20.1% for the first, 6.2% for the second.

First: CCCCCCCCCCCCCCCCCCNc1nc(NCCN(C)C)nc(SCCCCCCCCCC)n1 [Compound D1S10N18]
Second: CCCCCCCCCCCCCCCCSc1nc(NCCCCCCCCCCCCC)nc(NCCN(C)C)n1 [Compound D1S16N13]
The “Absolute mRNA transfection efficiency” value of the first is higher: 4.8% for the first, 0.9% for the second.

Compared with CCCCCCCCCCCCSc1nc(NCCCCCCCCCCC)nc(NCCN(C)C)n1 [Compound D1S12N11], CCCCCCCCCCCCNc1nc(NCCN(C)C)nc(SCCCCCCCCCCCC)n1 [Compound D1S12N12] is lower in “Absolute mRNA transfection efficiency” value: 2.6% for the first, 1.7% for the second.

Going from CCCCCCCCCCCSc1nc(NCCCCCC)nc(NCCCN2CCN(C)CC2)n1 [Compound D9S11N6] to CCCCCCCCSc1nc(NCCCCCC)nc(NCCCN2CCN(C)CC2)n1 [Compound D9S8N6], the “Absolute mRNA transfection efficiency” value falls from 12.2% to 0.7%.

Compared with CCCCCCCCCCCCSc1nc(NCCCCCCCCC)nc(NCCN2CCCCC2)n1 [Compound D4S12N9], CCCCCCCCCCCNc1nc(NCCN2CCCC2)nc(SCCCCCCCCCC)n1 [Compound D3S10N11] is higher in “Absolute mRNA transfection efficiency” value: 0.7% for the first, 17.1% for the second.

Compared with CCCCCCCCCCCCCCCCNc1nc(NCCN(CC)CC)nc(SCCCCCCCCCC)n1 [Compound D7S10N16], CCCCCCCCCCCNc1nc(NCCN(CC)CC)nc(SCCCCCCCCCCC)n1 [Compound D7S11N11] is higher in “Absolute mRNA transfection efficiency” value: 19.3% for the first, 35.0% for the second.

First: CCCCCCCCCCCCCCCCCCNc1nc(NCCCN2CCOCC2)nc(SCCCCCCCCC)n1 [Compound D8S9N18]
Second: CCCCCCCCCCCCCCCNc1nc(NCCCN2CCOCC2)nc(SCCCCCCCC)n1 [Compound D8S8N15]
The “Absolute mRNA transfection efficiency” value of the first is lower: 1.9% for the first, 4.6% for the second.

First: CCCCCCCCCCCSc1nc(NCCN2CCOCC2)nc(SCCCCCCCC)n1 [Compound D2S8S11]
Second: CCCCCCCCCCCSc1nc(NCCN2CCOCC2)nc(SCCCCCCC)n1 [Compound D2S7S11]
The “Absolute mRNA transfection efficiency” value of the first is higher: 43.3% for the first, 24.2% for the second.

Compared with CCCCCCCNc1nc(NCCN2CCOCC2)nc(SCCCCCCC)n1 [Compound D2S7N7], CCCCCCCCCSc1nc(NCCCCCCCC)nc(NCCN2CCOCC2)n1 [Compound D2S9N8] is higher in “Absolute mRNA transfection efficiency” value: 1.1% for the first, 22.6% for the second.

Compared with CCCCCCCCCCCCCCCNc1nc(NCCCN2CCN(C)CC2)nc(SCCCCCCCC)n1 [Compound D9S8N15], CCCCCCCCCCCCCCCSc1nc(NCCCCCCCCC)nc(NCCCN2CCN(C)CC2)n1 [Compound D9S15N9] is lower in “Absolute mRNA transfection efficiency” value: 37.8% for the first, 18.5% for the second.

First: CCCCCCCCCCCCCCCCCCSc1nc(NCCCCCCCCC)nc(NCCCN2CCN(C)CC2)n1 [Compound D9S18N9]
Second: CCCCCCCCCCCCCCCNc1nc(NCCCN2CCN(C)CC2)nc(SCCCCCCCCC)n1 [Compound D9S9N15]
The “Absolute mRNA transfection efficiency” value of the first is higher: 7.6% for the first, 6.3% for the second.

Going from CCCCCCCCCCCCCCCNc1nc(NCCN(C)C)nc(SCCCCCC)n1 [Compound D1S6N15] to CCCCCCCCCCCCCCCSc1nc(NCCCCCCC)nc(NCCN(C)C)n1 [Compound D1S15N7], the “Absolute mRNA transfection efficiency” value rises from 3.6% to 66.1%.

First: CCCCCCCCCCCCCNc1nc(NCCCN2CCOCC2)nc(SCCCCCCCCC)n1 [Compound D8S9N13]
Second: CCCCCCCCCCCCCCCCSc1nc(NCCCCCCC)nc(NCCN2CCOCC2)n1 [Compound D2S16N7]
The “Absolute mRNA transfection efficiency” value of the first is higher: 12.6% for the first, 10.0% for the second.

Going from CCCCCCCCCCCCCCCSc1nc(NCCCCCCCCCCCCC)nc(NCCN2CCCCC2)n1 [Compound D4S15N13] to CCCCCCCCCCCCCCSc1nc(NCCCCCCCCCCCC)nc(NCCN2CCCCC2)n1 [Compound D4S14N12], the “Absolute mRNA transfection efficiency” value rises from 0.8% to 12.6%.

Going from CCCCCCCCCCCCNc1nc(NCC2CCN(C)CC2)nc(SCCCCCCCCCCC)n1 [Compound D10S11N12] to CCCCCCCCCCCCCCCCSc1nc(NCCCCCCCCC)nc(NCC2CCN(C)CC2)n1 [Compound D10S16N9], the “Absolute mRNA transfection efficiency” value rises from 24.7% to 49.2%.

Going from CCCCCCCCCCCCCNc1nc(NCCCN2CCN(C)CC2)nc(SCCCCCCCCC)n1 [Compound D9S9N13] to CCCCCCCCCCCCCCCNc1nc(NCCCN2CCN(C)CC2)nc(SCCCCCCC)n1 [Compound D9S7N15], the “Absolute mRNA transfection efficiency” value rises from 20.0% to 32.6%.

Going from CCCCCCCCCSc1nc(NCCCCCCCC)nc(NCCN(CC)CC)n1 [Compound D7S9N8] to CCCCCCCCCCCCNc1nc(NCCN(CC)CC)nc(SCCCCCCCCC)n1 [Compound D7S9N12], the “Absolute mRNA transfection efficiency” value rises from 11.1% to 25.6%.

First: CCCCCCCSc1nc(NCC2CCN(C)CC2)nc(SCCCCCC)n1 [Compound D10S6S7]
Second: CCCCCCCCSc1nc(NCCN2CCCCC2)nc(SCCCCCCCC)n1 [Compound D4S8S8]
The “Absolute mRNA transfection efficiency” value of the first is higher: 19.7% for the first, 9.9% for the second.

Going from CCCCCCCCCCCCN(CCCCCCCCCCCC)c1nc(NCCN2CCN(C)CC2)nc(SCCCCCCCC)n1 [D5S8^2N12] to CCCCCCCCCCCCCCCCNc1nc(NCCN2CCN(C)CC2)nc(SCCCCCCCCCCCCCC)n1 [Compound D5S14N16], the “Absolute mRNA transfection efficiency” value falls from 0.9% to 0.6%.

Going from CCCCCCCCCCCCCCCCCCSc1nc(NCCN2CCCCC2)nc(N(CCCCCCCCCCCC)CCCCCCCCCCCC)n1 [D4S18^2N12] to CCCCCCCCCCCCCCCSc1nc(NCCN2CCCC2)nc(N(CCCCCCCCCCCC)CCCCCCCCCCCC)n1 [D3S15^2N12], the “Absolute mRNA transfection efficiency” value rises from 0.3% to 1.7%.

Going from CCCCCCCCCCCCCCCCCCNc1nc(NCCN2CCCC2)nc(SCCCCCCCCCCCCCCCC)n1 [Compound D3S16N18] to CCCCCCCCCCCCCCCCCCNc1nc(NCCN2CCCC2)nc(SCCCCCCCCCCCC)n1 [Compound D3S12N18], the “Absolute mRNA transfection efficiency” value falls from 14.1% to 3.5%.

Going from CCCCCCCCCCCCCCCCSc1nc(NCCN2CCCCC2)nc(SCCCCCCC)n1 [Compound D4S7S16] to CCCCCCCCCCCCCCCNc1nc(NCCN2CCCCC2)nc(SCCCCCCCC)n1 [Compound D4S8N15], the “Absolute mRNA transfection efficiency” value falls from 8.8% to 2.6%.

Compared with CCCCCCCCCCCNc1nc(NCCCN(C)C)nc(SCCCCCCCCCC)n1 [Compound D6S10N11], CCCCCCCCCCCCCCCCSc1nc(NCCCCCCCCC)nc(NCCN(C)C)n1 [Compound D1S16N9] is higher in “Absolute mRNA transfection efficiency” value: 10.0% for the first, 26.4% for the second.

Going from CCCCCCCCCCCCCNc1nc(NCCN2CCOCC2)nc(SCCCCCCC)n1 [Compound D2S7N13] to CCCCCCCCCCCCSc1nc(NCCCCCCCC)nc(NCCN2CCCCC2)n1 [Compound D4S12N8], the “Absolute mRNA transfection efficiency” value falls from 6.2% to 1.6%.

Compared with CCCCCCNc1nc(NCCCN2CCN(C)CC2)nc(SCCCCCC)n1 [Compound D9S6N6], CCCCCCCCCCCNc1nc(NCCN2CCN(C)CC2)nc(SCCCCCCCCCC)n1 [Compound D5S10N11] is higher in “Absolute mRNA transfection efficiency” value: 1.5% for the first, 11.0% for the second.

First: CCCCCCCCCCCCCCCCCCSc1nc(NCCCCCCCCCCCC)nc(NCCCN(C)C)n1 [Compound D6S18N12]
Second: CCCCCCCCCCCCCCCCSc1nc(NCCCCCCCCCCCCCCC)nc(NCCCN2CCN(C)CC2)n1 [Compound D9S16N15]
The “Absolute mRNA transfection efficiency” value of the first is higher: 2.6% for the first, 0.2% for the second.

Going from CCCCCCCCCCCCSc1nc(NCCCCCCCCC)nc(NCCN2CCCC2)n1 [Compound D3S12N9] to CCCCCCCCNc1nc(NCCCN(C)C)nc(SCCCCCCCC)n1 [Compound D6S8N8], the “Absolute mRNA transfection efficiency” value falls from 39.9% to 3.5%.

In the case of CCCCCCCCSc1nc(NCCCN(C)C)nc(SCCCCCCC)n1 [Compound D6S7S8], the “Absolute mRNA transfection efficiency” value is reported as 6.3%.
